Target: LC3B (Homo sapiens, UniProt Q9GZQ8)
Test: Fluorescence Polarization (FP) Assay: displacement of FITC-labeled peptide from GST-LC3B
Type: binding
Conditions: Fluorescence Polarization assay; GST-LC3B 180 nM, FITC-labeled peptide 18 nM, 25° C.; read-out: IC50
Method: The compounds of the present invention for regulating the autophagy-related protein LC3B were tested by Fluorescence Polarization (FP) Assay.
Fluorescence Polarization (FP) Assay Test

Row | IC50 | SMILES
1 | < 3 µM | O=C1CC(c2ccc(-c3ccncc3)s2)CC(=O)C1=CNCCN1CCN(CCO)CC1 (centres unmarked) [Compound 72, 2-(((2-(4-(2-hydroxyethyl)piperazin-1-yl)ethyl)amino)methylene)-5-(5-(pyridin-4-yl)thiophen-2-yl)cyclohexane-1,3-dione]
2 | < 3 µM | O=C1CC(c2ccc(-c3ccncc3)cc2)CC(=O)C1=CNCCN1CCN(CCO)CC1 (centres unmarked) [Compound 73, 2-(((2-(4-(2-hydroxyethyl)piperazin-1-yl)ethyl)amino)methylene)-5-(4-(pyridin-4-yl)phenyl) cyclohexane-1,3-dione]
3 | 3 to 15 µM | O=C1CC(c2cccc(Oc3ccncc3)c2)CC(=O)C1=CNCCN1CCN(CCO)CC1 (centres unmarked) [Compound 75, 2-(((2-(4-(2-hydroxyethyl)piperazin-1-yl)ethyl)amino)methylene)-5-(3-(pyridin-4-yloxy)phenyl) cyclohexane-1,3-dione]
4 | 15 to 100 µM | CCOc1ncnc2c1ncn2-c1ccc(C2CC(=O)C(=CNCCN3CCN(CCO)CC3)C(=O)C2)cc1 (centres unmarked) [Compound 76, 5-(4-(6-ethoxy-9H-purin-9-yl)phenyl)-2-(((2-(4-(2-hydroxyethyl)piperazin-1-yl)ethyl)amino)methylene) cyclohexane-1,3-dione]
5 | 100 to 1000 µM | CN1CCN(c2ccc(C3CC(=O)C(=CNCCN4CCN(CCO)CC4)C(=O)C3)cn2)CC1 (centres unmarked) [Compound 79, 2-(((2-(4-(2-hydroxyethyl)piperazin-1-yl)ethyl)amino)methylene)-5-(6-(4-methylpiperazin-1-yl)pyridin-3-yl) cyclohexane-1,3-dione]
6 | 15 to 100 µM | COCCOc1cc(C2CC(=O)C(=CNCCN3CCN(CCO)CC3)C(=O)C2)ccc1OC (centres unmarked) [Compound 80, 2-(((2-(4-(2-hydroxyethyl)piperazin-1-yl)ethyl)amino)methylene)-5-(4-methoxy-3-(2-methoxyethoxy)phenyl) cyclohexane-1,3-dione]
7 | 15 to 100 µM | O=C1CC(c2ccc(-c3nccs3)cc2)CC(=O)C1=CNCCN1CCN(CCO)CC1 (centres unmarked) [Compound 81, 2-(((2-(4-(2-hydroxyethyl)piperazin-1-yl)ethyl)amino)methylene)-5-(4-(thiazol-2-yl)phenyl) cyclohexane-1,3-dione]
8 | 15 to 100 µM | O=C1CC(c2ccc(-n3ccnc3)nc2)CC(=O)C1=CNCCN1CCN(CCO)CC1 (centres unmarked) [Compound 82, 5-(6-(1H-imidazol-1-yl)pyridin-3-yl)-2-(((2-(4-(2-hydroxyethyl)piperazin-1-yl)ethyl)amino)methylene) cyclohexane-1,3-dione]
9 | 15 to 100 µM | O=C1CC(c2ccc(Nc3nccs3)nc2)CC(=O)C1=CNCCN1CCN(CCO)CC1 (centres unmarked) [Compound 83, 2-(((2-(4-(2-hydroxyethyl)piperazin-1-yl)ethyl)amino)methylene)-5-(6-(thiazol-2-ylamino)pyridin-3-yl)cyclohexane-1,3-dione]
10 | 15 to 100 µM | COCCN1c2ccccc2Sc2cc(C3CC(=O)C(=CNCCN4CCN(CCO)CC4)C(=O)C3)ccc21 (centres unmarked) [Compound 84, 2-(((2-(4-(2-hydroxyethyl)piperazin-1-yl)ethyl)amino)methylene)-5-(10-(2-methoxyethyl)-10H-phenothiazin-3-yl)cyclohexane-1,3-dione]
11 | 15 to 100 µM | Nc1nc2c(C3CC(=O)C(=CNCCN4CCN(CCO)CC4)C(=O)C3)cccc2s1 (centres unmarked) [Compound 85, 5-(2-aminobenzo[d]thiazol-4-yl)-2-(((2-(4-(2-hydroxyethyl)piperazin-1-yl)ethyl)amino)methylene)cyclohexane-1,3-dione]
12 | 15 to 100 µM | O=C1CC(c2ccc(-n3ccnc3)cc2)CC(=O)C1=CNCCN1CCN(CCO)CC1 (centres unmarked) [Compound 87, 5-(4-(1H-imidazol-1-yl)phenyl)-2-(((2-(4-(2-hydroxyethyl)piperazin-1-yl)ethyl)amino)methylene) cyclohexane-1,3-dione]
13 | 3 to 15 µM | O=C1CC(c2cnc3ccccc3n2)CC(=O)C1=CNCCN1CCN(CCO)CC1 (centres unmarked) [Compound 88, 2-(((2-(4-(2-hydroxyethyl)piperazin-1-yl)ethyl)amino)methylene)-5-(quinoxalin-2-yl)cyclohexane-1,3-dione]
14 | 100 to 1000 µM | O=C1CC(c2ccc(OCCN3CCOCC3)nc2)CC(=O)C1=CNCCN1CCN(CCO)CC1 (centres unmarked) [Compound 89, 2-(((2-(4-(2-hydroxyethyl)piperazin-1-yl)ethyl)amino)methylene)-5-(6-(2-morpholinoethoxy)pyridin-3-yl)cyclohexane-1,3-dione]
15 | 3 to 15 µM | O=C1CC(c2cccc3[nH]ncc23)CC(=O)C1=CNCCN1CCN(CCO)CC1 (centres unmarked) [Compound 93, 2-(((2-(4-(2-hydroxyethyl)piperazin-1-yl)ethyl)amino)methylene)-5-(1H-indazol-4-yl)cyclohexane-1,3-dione]

Second part, the molecule before the results:

Row | SMILES | IC50
16 | CN(C)C=Nc1nc2c(C3CC(=O)C(=CNCCN4CCN(CCO)CC4)C(=O)C3)cccc2s1 (centres unmarked) [Compound 74, N′-(4-(4-(((2-(4-(2-hydroxyethyl)piperazin-1-yl)ethyl)amino)methylene)-3,5-dioxocyclohexyl)benzo[d]thiazol-2-yl)-N,N-dimethyl-formimidamide] | < 3 µM
17 | O=C1CC(c2ccc(C(=O)N3CCOCC3)cc2)CC(=O)C1=CNCCN1CCN(CCO)CC1 (centres unmarked) [Compound 77, 2-(((2-(4-(2-hydroxyethyl)piperazin-1-yl)ethyl)amino)methylene)-5-(4-(morpholine-4-carbonyl)phenyl) cyclohexane-1,3-dione] | 15 to 100 µM
18 | O=C1CC([C@]23C[C@H]4C[C@H](C[C@H](C4)C2)C3)CC(=O)C1=CNCCN1CCN(CCO)CC1 (some centres unmarked) [Compound 78] | 15 to 100 µM
19 | O=C1CC2(CCC2)CC(=O)C1=CNCCN1CCN(CCO)CC1 [Compound 86, 7-(((2-(4-(2-hydroxyethyl)piperazin-1-yl)ethyl)amino)methylene)-spiro[3.5]nonane-6,8-dione] | 15 to 100 µM
20 | O=C1CC(c2cncnc2)CC(=O)C1=CNCCN1CCN(CCO)CC1 (centres unmarked) [Compound 90, 2-(((2-(4-(2-hydroxyethyl)piperazin-1-yl)ethyl)amino)methylene)-5-(pyrimidin-5-yl)cyclohexane-1,3-dione] | 100 to 1000 µM
21 | O=C1CC(c2cnc(N3CCOCC3)nc2)CC(=O)C1=CNCCN1CCN(CCO)CC1 (centres unmarked) [Compound 91, 2-(((2-(4-(2-hydroxyethyl)piperazin-1-yl)ethyl)amino)methylene)-5-(2-morpholino-pyrimidin-5-yl)cyclohexane-1,3-dione] | 15 to 100 µM
22 | O=C1CC(c2ccc(S(=O)(=O)N3CCOCC3)cc2)CC(=O)C1=CNCCN1CCN(CCO)CC1 (centres unmarked) [Compound 92] | 15 to 100 µM
23 | O=C1CC(C(F)(F)F)CC(=O)C1=CNCCN1CCN(CCO)CC1 (centres unmarked) [Compound 94, 2-(((2-(4-(2-hydroxyethyl)piperazin-1-yl)ethyl)amino)methylene)-5-(trifluoromethyl) cyclohexane-1,3-dione] | 15 to 100 µM
24 | O=C1CC(c2ccccc2)OC(=O)C1=CNCCN1CCN(CCO)CC1 (centres unmarked) [Compound 95, 3-(((2-(4-(2-hydroxyethyl)piperazin-1-yl)ethyl)amino)methylene)-6-phenyldihydro-2H-pyran-2,4(3H)-dione] | 15 to 100 µM
25 | O=C1CC(c2ccccc2)NC(=O)C1=CNCCN1CCN(CCO)CC1 (centres unmarked) [Compound 96, 3-(((2-(4-(2-hydroxyethyl)piperazin-1-yl)ethyl)amino)methylene)-6-phenylpiperidine-2,4-dione] | 100 to 1000 µM
26 | O=C1CN(c2ccccc2)CC(=O)C1=CNCCN1CCN(CCO)CC1 [Compound 97, 4-(((2-(4-(2-hydroxyethyl)piperazin-1-yl)ethyl)amino)methylene)-1-phenylpiperidine-3,5-dione] | 15 to 100 µM

Source: patent US11319303B2 (WIGEN BIOMEDICINE TECHNOLOGY (SHANGHAI) CO., LTD., priority 2017, dated 2022)
